For assay [1], the target named is T1, full-length AMPK (rat His-α1, β1, γ1) (Rattus norvegicus, UniProt P54645+P80385).
T1 construct: Tricistronic vectors encoding full-length AMPK (rat His-α1, β1, γ1); made in house; host or cells: Rosetta cells (E. coli), tricistronic vector, gift of Dr. Uwe Schlattner
The experiment in a line: MANT-ADP fluorescence displacement (binding) assay, full-length AMPK. As to conditions: for thiol-reactivity: binding curves in the presence and absence of DTT: 0-1 mM DTT. On the procedure: (§1) Except where otherwise noted, assays were performed with the following conditions: 0.5 μM full-length AMPK (130 kDa) or 0.5 μM regulatory fragment (66.7 kDa), 0.1 μM MANT-ADP, 10 mM Tris-HCl (pH 8), 0.45% DMSO (vehicle and negative control), and 5 μM ADP (positive control). Automated assays were assembled in two steps. First, a NanoQuot (BioTek) was used to dispense 11 μL of master mix (protein, MANT-ADP, and Tris-HCl) per well in black, low volume 384-well plates (Corning-3676). Next, a Biomek NX workstation (Beckman-Coulter, Brea, Calif.) equipped with pintools (VP Scientific, San Diego Calif.) was used to transfer 50 nL of controls (columns 1, 2, 23, and 24) and small molecules (4.5 μM final). Controls and library molecules were transferred from Axygen 384-well rigid PCR plates (Cat no. 321-67-051) at 221× concentration for single-concentration screening. Plates were shaken for 10 minutes prior to reading.
(§2) Fluorescence emission spectra of MANT-ADP were collected using a PerkinElmer EnSpire plate reader with an excitation wavelength of 360 nm. Background fluorescence from protein was subtracted from the raw data prior to plotting MANT-ADP's fluorescence in the presence of protein. Fluorescence detection for assay development and screening was performed on either a BMG Pherastar Plus (360/10 excitation and 460/10 emission filters) or a PerkinElmer EnVision (355/40 excitation and 460/25 emission filters), depending on equipment availability. Relative fluorescence units (RFUs) were recorded at room temperature.
(§3) ScreenAble (ScreenAble Solutions, Chapel Hill, N.C.) high-throughput screening software was utilized for merging screening data and chemical structure, for statistical design of experiments, and hit selection. GraphPad Prism was used for non-linear regression analysis of dose response data.
(§4) Binding assays. Except where otherwise noted, assay assembly and data analysis were completed according to published methods. Binding assays were manually assembled, with the exception of the similarity screen. Automated assembly of the similarity screen was completed according to published methods. Analogs were cherry-picked from a 10 mM Asinex small molecule library and a 0.5 mM kinase focused library, which has been described previously (4). Molecules were screened at a final concentration of 45 and 2.3 μM, respectively.

The target of another assay is T2, purified p-AMPK (Rattus norvegicus, UniProt P54645+P80385).
T2 construct: Full-length AMPK intended for use in phosphatase and kinase assays was purified, mixed with GST-CaMKKβ; made in house; host or cells: Rosetta cells (E. coli); phosphorylated in vitro with GST-CaMKKβ, which was then removed on glutathione resin
T2 sequence (P54645 with tags, fused parts or gaps limits assumed): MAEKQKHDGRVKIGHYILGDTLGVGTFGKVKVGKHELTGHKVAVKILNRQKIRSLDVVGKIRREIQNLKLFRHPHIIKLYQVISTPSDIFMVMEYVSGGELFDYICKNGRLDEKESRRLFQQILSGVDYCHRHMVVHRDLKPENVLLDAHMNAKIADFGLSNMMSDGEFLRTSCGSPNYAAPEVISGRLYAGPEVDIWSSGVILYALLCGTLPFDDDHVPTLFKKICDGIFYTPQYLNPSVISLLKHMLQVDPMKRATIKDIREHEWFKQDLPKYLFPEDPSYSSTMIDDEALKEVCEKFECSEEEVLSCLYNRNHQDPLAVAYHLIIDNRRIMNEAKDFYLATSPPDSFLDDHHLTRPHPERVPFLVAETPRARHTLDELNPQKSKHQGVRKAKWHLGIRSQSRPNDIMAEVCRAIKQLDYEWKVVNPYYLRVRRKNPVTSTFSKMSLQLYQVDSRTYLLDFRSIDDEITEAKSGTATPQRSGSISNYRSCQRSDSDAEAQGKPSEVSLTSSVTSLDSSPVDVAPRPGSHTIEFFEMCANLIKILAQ
T2 sequence (P80386 whole entry partner): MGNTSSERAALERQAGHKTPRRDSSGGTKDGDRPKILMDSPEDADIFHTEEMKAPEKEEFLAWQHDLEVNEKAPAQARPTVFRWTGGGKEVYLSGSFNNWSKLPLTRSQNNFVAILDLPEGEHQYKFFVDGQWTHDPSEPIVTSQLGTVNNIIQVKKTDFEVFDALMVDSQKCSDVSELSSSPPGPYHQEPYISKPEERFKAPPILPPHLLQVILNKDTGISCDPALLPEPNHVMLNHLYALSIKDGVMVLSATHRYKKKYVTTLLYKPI
T2 sequence (P80385 whole entry): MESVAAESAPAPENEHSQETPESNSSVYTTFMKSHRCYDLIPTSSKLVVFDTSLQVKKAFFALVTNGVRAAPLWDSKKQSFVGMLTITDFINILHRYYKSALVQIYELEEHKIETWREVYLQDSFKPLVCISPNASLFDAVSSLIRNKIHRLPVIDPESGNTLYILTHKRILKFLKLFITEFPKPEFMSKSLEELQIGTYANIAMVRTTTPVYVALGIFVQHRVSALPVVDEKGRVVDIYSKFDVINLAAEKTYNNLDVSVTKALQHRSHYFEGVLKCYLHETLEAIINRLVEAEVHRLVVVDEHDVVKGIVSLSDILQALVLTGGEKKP
The experiment in a line: Kinase assay with purified p-AMPK and GST-ACC peptide. As to conditions: compared to DMSO control. Format: biochemical. On the procedure:
Kinase assays. Assay conditions were adapted from published methods (17). The final assay buffer was comprised of 40 mM Hepes (pH 7.4) 5 mM MgCl2, 200 μM ATP, 75 mM NaCl, 0.01% Triton X-100, 1 mM DTT, and 0.45% DMSO (vehicle). Because some analogs had poor solubility at high concentrations, all analogs and controls were diluted in assay buffer and centrifuged (1 min, 5000 rpm, 4° C.) to remove insoluble matter. GST-ACC peptide and p-AMPK were thawed, diluted in assay buffer, and then added to the supernatant at final concentrations of 900 and 0.1 ng/μL, respectively. Kinase assays were assembled on ice; reactions were allowed to proceed for 30 minutes at room temperature. Reactions were stopped by the addition of loading buffer and 48 mM DTT followed promptly by freezing at −20° C.
(§5) Western analyses. Protein samples were boiled for 15 minutes in loading buffer and DTT prior to SDS-PAGE. Blots for protein-based assays were sequentially incubated with the following: 5% BSA in 1× TBS (1 hr, 22° C.), 1:1000 rabbit anti-human p-AMPK-α antibody or p-ACC antibody (2 hr, 22° C.), and 1:10,000 donkey anti-rabbit secondary antibody (1 hr, 22° C.). Blots for phosphatase assays were probed a second time using 1:100 mouse anti-human total AMPK antibody (overnight, 4° C.; from UNC Antibody Core Facility) followed by 1:10,000 donkey anti-mouse secondary antibody (1 hr, 22° C.). Blots for clarified cell lysates were sequentially probed for p-AMPK (1:500 dilution, overnight at 4° C. or 4 hours at 22° C.), total ACC (1:1000 dilution, overnight at 4° C. or 4 hours at 22° C.), and tubulin (1:10,000 dilution, 1 hr, 22° C.); a parallel set of blots were probed for p-ACC (1:500 dilution, overnight at 4° C. or 4 hours at 22° C.), total AMPK (1:1000 dilution, overnight at 4° C. or 4 hours at 22° C.), and tubulin (1:10,000 dilution, 1 hr, 22° C.). Because phosphorylated and total protein were imaged on separate membranes, the signals were normalized to the internal tubulin signal prior to calculating the ratio of phosphorylated to total protein. Scanning and imaging were completed according to published methods.

In assay [2] the test system is p-ACC levels in HEK cells. In words: Cell-intact assay, p-ACC levels in HEK cells. It counts as cell-based, human. The note with it: for p-ACC levels, serum-treated HEK cells: 10% serum; for p-ACC levels, serum-starved HEK cells: 1 hour treatment. The protocol:
Cell-intact assays. HEK cells were grown in DMEM with 10% FBS and 1% penicillin/streptomycin at 37° C. A subset of plates was serum-starved for 5 hours on the day of the experiment. After 5 hours of serum-starvation, cells were treated with either controls (0.2% DMSO, A-769662, or Compound C) or small molecules in the absence of serum for an additional hour prior to lysis. Another subset of plates was serum-starved for 6 hours and then treated with either controls or small molecules for 1 hour in the presence of 10% FBS. A time course of both AMPK and ACC phosphorylation in HEK cells during serum starvation has already been published (Pirkmajer S, Chibalin A V. Serum starvation: caveat emptor. American journal of physiology Cell physiology. 2011 August; 301(2):C272-9. PubMed PMID: 2161361).
After incubating in the presence of drugs for one hour, cells were washed three times with ice-cold PBS and lysed according to published methods (Kazgan N, Williams T, Forsberg L J, Brenman J E. Identification of a nuclear export signal in the catalytic subunit of AMP-activated protein kinase. Molecular biology of the cell. 2010 Oct. 1; 21(19):3433-42. PubMed PMID: 20685962. Pubmed Central PMCID: 2947478). Lysates were centrifuged at 16,000 g (10 minutes, 4° C.). Clarified supernatant (30 μL) was then transferred to 10 μL 4X loading buffer and 2 μL 1 M DTT. Samples were immediately frozen at −20° C. The concentration of protein in diluted clarified supernatant was calculated using a DC protein assay kit (BioRad) prior to western analyses.
as §5

Assay [3] addresses T3, AMPK regulatory fragment (rat His-α1, 396-548; human β2, 187-272; rat γ1) (Rattus norvegicus, UniProt P80385).
T3 construct: rat His-α1, 396-548; human β2, 187-272; rat γ1; made in house; host or cells: Rosetta cells (E. coli), tricistronic vector, gift of Dr. Steve Gamblin
In words: MANT-ADP fluorescence displacement (binding) assay, AMPK regulatory fragment. As to conditions: inhibition of MANT-ADP fluorescence; for IC50: read-out: IC50 (data in parentheses). The protocol:
as §1, §2, §3, §4

Assay [4] relates to phospho-AMPKα in HEK cells. In words: Western blot of treated HEK cells for phospho-AMPKα (Example 3). It counts as cell-based, human. As to conditions: for AMPK modulatory activity / phospho-AMPKα (Western blot, FIG. 7): HEK cells; for phospho-AMPKα (Western blot, FIG. 7): standardized to tubulin; for phospho-AMPK (FIG. 8): human Hek293 cells. On the procedure: Approximately 50 compounds will be tested from those identified above using the methods and assays described herein on HEK cells in culture in 6 well plate format for their ability to enter cells and modulate AMPK, initially at 1 μM, 2 μM, 10 μM and 20 μM compound in 0.1% DMSO. […] Molecular biology of the cell 23, 381-389, doi:10.1091/mbc.E11-08-0699 (2012)). Examples of this approach with compounds identified from our preliminary screening that have AMPK modulatory activity are shown in FIG. 7. […] See also FIG. 8. […] By testing under multiple conditions, the likelihood of identifying agonists and antagonists of AMPK activity in vivo, and particularly those that are not dependent on a particular means of altering AMPK activity may increase.
The phosphorylation status of AMPKα with a phospho-specific antibody (against the activation/T-loop threonine 172) (Cell Signaling) will be quantified. […] Molecular biology of the cell 21, 3433-3442, doi:10.1091/mbc.E10-04-0347 (2010)) (FIG. 7). […] In addition, phospho-ACC (Cell Signaling) will be measured by western blot. Cytoplasmic acetyl coenzyme A carboxylase (ACC) is the best known AMPK direct downstream target, and is a rate-limiting enzyme in the energy consuming process of fatty acid synthesis (Davies, S. P. et al. Purification of the AMP-activated protein kinase on ATP-gamma-sepharose and analysis of its subunit structure. European journal of biochemistry/FEBS 223, 351-357 (1994); Carling, D., Zammit, V. A. & Hardie, D. G. A common bicyclic protein kinase cascade inactivates the regulatory enzymes of fatty acid and cholesterol biosynthesis. FEBS Lett 223, 217-222 (1987)). Phospho-ACC will be standardized to both tubulin and total (non-phospho) ACC to ensure we are not measuring changes in total ACC levels. Compounds that modulate phospho-AMPKα and phospho-ACC status in the same direction (both increase or both decrease) will be prioritized over compounds that produce different affects on AMPKα versus ACC phosphorylation for in vitro kinase or phosphatase protection assays.
A general note: Immunoblotting shows a protein as a band on a membrane.

[5] abbreviates: full-length AMPK, inhibition of MANT-ADP fluorescence.
[6] abbreviates: full-length AMPK, inhibition of MANT-ADP fluorescence, read-out: IC50.

Entries after “also recorded” stand apart in the source; their conditions may differ. Like-named read-outs stand apart in the source and are kept apart here.

T3 sequence (P54645 407-559 partner limits assumed): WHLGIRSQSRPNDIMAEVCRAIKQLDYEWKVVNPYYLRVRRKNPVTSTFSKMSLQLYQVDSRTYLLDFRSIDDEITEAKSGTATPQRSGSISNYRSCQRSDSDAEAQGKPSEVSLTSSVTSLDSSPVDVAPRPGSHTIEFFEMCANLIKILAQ
T3 sequence (O43741 187-272 partner limits assumed): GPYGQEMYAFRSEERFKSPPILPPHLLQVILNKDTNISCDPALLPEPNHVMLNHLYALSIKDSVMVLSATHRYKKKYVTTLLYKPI
T3 sequence (P80385 whole entry, the tested form may be a part): as the sequence (P80385 whole entry) above
T1 sequence (P54645 with tags, fused parts or gaps limits assumed): as the sequence (P54645 with tags, fused parts or gaps limits assumed) above
T1 sequence (P80386 whole entry partner): as the sequence (P80386 whole entry partner) above
T1 sequence (P80385 whole entry): as the sequence (P80385 whole entry) above

Turning to `COC(=O)CN1C(=O)/C(=C/c2ccc(OC)cc2)SC1=S` [BAS 00502779], the “inhibition of the protein-bound signal of MANT-ADP in the triplicate similarity screen” value in assay [1] (final concentration 45 μM) is reported as “reproducibly inhibited”.
For `c1cc(-c2cnn3cc(-c4ccc(OCCN5CCCCC5)cc4)cnc23)ccn1` [Compound C, reference compound], the “activity of purified p-AMPK (phosphorylation of GST-ACC peptide), dose response” value on purified p-AMPK was “inhibits substrate phosphorylation”. Besides, in assay [2], the “p-ACC levels, serum-treated HEK cells” value is on record as “modest decreases” and the “p-ACC levels, serum-starved HEK cells” value is on record as “best inhibition”.
One may read the IC50 as the concentration at which inhibition is half-maximal. What is called Hill slope is a measure of the steepness of the concentration-response curve. In the case of `COc1cc(C(=O)/C=C/c2cc(O)c(O)c(Cl)c2)cc(OC)c1OC` [Example Z64358107], the “Hill slope (data in parentheses)” value in assay [3] was determined as 2.6. The values for the IC50 in assay [3] and in assay [1] (setting [6]) were 200 nM and 300 nM, respectively. Also, in assay [1] (setting [5]), the Hill slope turned out to be 1.1.
With `Cc1ccc(-c2ccc(/C=C3\SC(=S)N(CC(=O)O)C3=O)o2)cc1` [STK740822, 2-{(5Z)-5-{[5-(4-Methylphenyl)furan-2-yl]methylidene}-4-oxo-2-sulfanylidene-1,3-thiazolidin-3-yl}acetic acid], in assay [3], the “Hill slope (data in parentheses)” value is recorded as 1.4 (1.4) and the IC50 amounted to 1600 nM. In assay [1], the “thiol-reactivity: binding curves in the presence and absence of DTT” value is recorded as “not thiol-reactive”. Also, the “Hill slope” value in assay [1] (full-length AMPK, Example 4) was 1.2. Moreover, the IC50 in assay [1] (full-length AMPK, Example 4, read-out: binding IC50) came out at 9000 nM. In addition, in assay [1] (setting [5]), the Hill slope was 1.4 (1.4). In addition, the IC50 in assay [1] (setting [6]) is 2900 nM. For the same molecule, in assay [4], the AMPK modulatory activity result is on record as “activating activity”; the “phospho-AMPKα (Western blot, FIG. 7)” value is “increased”; the “phospho-AMPK (FIG. 8)” value was “increase”.
In the case of `O=C1/C(=C/c2ccc(-c3ccc(F)cc3)o2)SC(=S)N1CCS(=O)(=O)O` [STK823366, 2-[(5Z)-5-{[5-(4-fluorophenyl)furan-2-yl]methylidene}-4-oxo-2-sulfanylidene-1,3-thiazolidin-3-yl]ethane-1-sulfonic acid], on purified p-AMPK, the “activity of purified p-AMPK (phosphorylation of GST-ACC peptide), dose response” value is “dose-dependently inhibited”. In assay [2], the “p-ACC levels, serum-treated HEK cells” value is on record as “decreased phosphorylation; also recorded: decreases” and the “p-ACC levels, serum-starved HEK cells” value is “decreased phosphorylation”.
With `O=C1Nc2ccc(Br)cc2/C1=C1/SC(=S)N(C(Cc2ccccc2)C(=O)O)C1=O` (stereo not drawn) [STL035166], in assay [3], the “Hill slope (data in parentheses)” value is recorded as 1.4 and the IC50 was determined as 1500 nM. Moreover, the “thiol-reactivity: binding curves in the presence and absence of DTT” value in assay [1] is given as “dramatically different dose response curve”. In assay [1] (1 mM DTT, read-out: extrapolated IC50 in the presence of DTT), the IC50 was around 250000 nM. The same molecule registered a Hill slope in assay [1] (setting [5]) of 1.3. In addition, the IC50 in assay [1] (setting [6]) came to 2700 nM. In assay [4], the AMPK modulatory activity entry is recorded as “inhibitory activity”; the “phospho-AMPKα (Western blot, FIG. 7)” value is listed as “decreased”; the “phospho-AMPK (FIG. 8)” value is listed as “increase”.

These data come from patent US20160176859A1, “High-Throughput Assay for Identifying Small Molecules that Modulate AMP-activated Protein Kinase (AMPK)” (North Carolina Central University, priority 2013, published 2016).
